# Measured values reported in patent US20230085307A1, “PYRIDAZINONE COMPOUND AND HERBICIDE” (NISSAN CHEMICAL CORPORATION, priority 2019, published 2023).
# Experiments:
# lambsquarters [1] = experiment: Test Example 5: herbicidal effect by foliage application, plastic box (Table 20, symbol O); assay type: in vivo, lambsquarters (Chenopodium album); conditions: 320 g/ha, foliage application after 14-day growth, evaluated three weeks after application
# How it was run: (§1)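 Plants sown in sterilized diluvial soil and grown 14 days in a greenhouse at 25° C to 30° C, then sprayed on the foliage with the compound's emulsion diluted in water to a predetermined herbicide amount. Injury to weeds and crops scored three weeks after application on a visual rating scale.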
# lambsquarters [2] = experiment: Test Example 4: herbicidal effect by soil treatment (Table 19, symbol O); assay type: in vivo, lambsquarters (Chenopodium album); conditions: amount of applied herbicide 320 g/ha
# How it was run: (§2)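 Three weeks of greenhouse growth at 25° C. to 30° C. followed a uniform surface spray of water-diluted emulsion at a predetermined herbicide amount. Seeds had been sown beforehand under about 1.5 cm of sterilized diluvial soil. Grading followed criteria set out in an earlier test.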
# Japanese bulrush = experiment: Test Example 2: herbicidal activity, application during weed generation under submerged conditions (Table 17, symbol B); assay type: in vivo, Japanese bulrush (Schoenoplectus juncoides); conditions: AAH 320 g/ha; application during weed generation, submerged conditions
# How it was run: (§3)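 In this pot test, flooded alluvial soil (water depth 4 cm) holds all three species sown as a mixture. Once seedlings have one to two leaves, the compound's emulsion, thinned with water to the intended dose, is poured on the water; grading follows after three weeks on the earlier criteria.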
# chickweed [3] = experiment: Test Example 5: herbicidal effect by foliage application, plastic box (Table 20, symbol P); assay type: in vivo, common chickweed (Stellaria media); conditions: 320 g/ha, foliage application after 14-day growth, evaluated three weeks after application
# How it was run: as §1
# oval-leafed pondweed [4] = experiment: Test Example 1: herbicidal activity, application before weed generation under submerged conditions (Table 16, symbol C); assay type: in vivo, oval-leafed pondweed (Monochoria vaginalis); conditions: amount of applied herbicide 320 g/ha
# How it was run: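 Submerged Wagner pots (alluvial soil, 4 cm water) sown with weed seeds and planted with 2.5-leaf rice seedlings; emulsifiable concentrate diluted in water applied to water surface on sowing day. Held in greenhouse at 25-30 °C; injury scored 0-5 by herbicidal rate after three weeks.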
# wild oat = experiment: Test Example 4: herbicidal effect by soil treatment (Table 19, symbol I); assay type: in vivo, wild oat (Avena fatua); conditions: amount of applied herbicide 320 g/ha
# How it was run: as §2
# Italian ryegrass = experiment: Test Example 5: herbicidal effect by foliage application, plastic box (Table 20, symbol K); assay type: in vivo, Italian ryegrass (Lolium multiflorum); conditions: 320 g/ha, foliage application after 14-day growth, evaluated three weeks after application
# How it was run: as §1
# barnyard grass = experiment: Test Example 4: herbicidal effect by soil treatment (Table 19, symbol H); assay type: in vivo, barnyard grass (Echinochloa crus-galli); conditions: amount of applied herbicide 320 g/ha
# How it was run: as §2
# persian speedwell = experiment: Test Example 5: herbicidal effect by foliage application, plastic box (Table 20, symbol R); assay type: in vivo, Persian speedwell (Veronica persica); conditions: 320 g/ha, foliage application after 14-day growth, evaluated three weeks after application
# How it was run: as §1
# Chinese sprangletop = experiment: Test Example 3: herbicidal effect by foliage application, Wagner pot (Table 18, symbol D); assay type: in vivo, chinese sprangletop (Leptochloa chinensis); conditions: 320 g/ha
# How it was run: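 Plants were sown in alluvial soil held under 0.1–0.5 cm standing water and grown 14 days in a greenhouse at 25–30 °C. An emulsifiable formulation, water-diluted to the set dose, was then sprayed onto the foliage, and effects were scored three weeks later using previously defined criteria.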
# oval-leafed pondweed [5] = experiment: Test Example 2: herbicidal activity, application during weed generation under submerged conditions (Table 17, symbol C); assay type: in vivo, oval-leafed pondweed (Monochoria vaginalis); conditions: AAH 320 g/ha; application during weed generation, submerged conditions
# How it was run: as §3
# chickweed [6] = experiment: Test Example 4: herbicidal effect by soil treatment (Table 19, symbol P); assay type: in vivo, common chickweed (Stellaria media); conditions: amount of applied herbicide 320 g/ha
# How it was run: as §2
# redroot pigweed = experiment: Test Example 4: herbicidal effect by soil treatment (Table 19, symbol N); assay type: in vivo, redroot pigweed (Amaranthus retroflexus); conditions: amount of applied herbicide 320 g/ha
# How it was run: as §2
# blackgrass = experiment: Test Example 4: herbicidal effect by soil treatment (Table 19, symbol J); assay type: in vivo, blackgrass (Alopecurus myosuroides); conditions: amount of applied herbicide 320 g/ha
# How it was run: as §2
# late watergrass = experiment: Test Example 2: herbicidal activity, application during weed generation under submerged conditions (Table 17, symbol A); assay type: in vivo, late watergrass (Echinochloa oryzicola); conditions: AAH 320 g/ha; application during weed generation, submerged conditions
# How it was run: as §3
SMILES,herbicidal effect on O: lambsquarters (evaluation grade 0-5) (lambsquarters [1]),"Herbicidal effect by soil treatment, O: lambsquarters (lambsquarters [2])","herbicidal effect rating, B: Japanese bulrush (Japanese bulrush)",herbicidal effect on P: chickweed (evaluation grade 0-5) (chickweed [3]),"Herbicidal effect, C: oval-leafed pondweed (oval-leafed pondweed [4])","Herbicidal effect by soil treatment, I: wild oat (wild oat)",herbicidal effect on K: Italian ryegrass (evaluation grade 0-5) (Italian ryegrass),"Herbicidal effect by soil treatment, H: barnyard grass (barnyard grass)",herbicidal effect on R: persian speedwell (evaluation grade 0-5) (persian speedwell),herbicidal effect on Chinese sprangletop (D) (Chinese sprangletop),"herbicidal effect rating, C: oval-leafed pondweed (oval-leafed pondweed [5])","Herbicidal effect by soil treatment, P: chickweed (chickweed [6])","Herbicidal effect by soil treatment, N: redroot pigweed (redroot pigweed)","Herbicidal effect by soil treatment, J: blackgrass (blackgrass)","herbicidal effect rating, A: late watergrass (late watergrass)"
CCCC(=O)Oc1c(C)nn(C)c(=O)c1-c1c(-c2ccccc2OCC)sc2c(Cl)cccc12 [4-026],3 (Herbicidal rate of 40% or more and less than 70%),0 (Herbicidal rate of 5% or less (almost no effect)),3 (Herbicidal rate of 40% or more and less than 70%),5 (Herbicidal rate of 90% or more (almost completely withered)),4 (Herbicidal rate of 70% or more and less than 90%),0 (Herbicidal rate of 5% or less (almost no effect)),1 (Herbicidal rate of 5% or more and less than 20%),3 (Herbicidal rate of 40% or more and less than 70%),4 (Herbicidal rate of 70% or more and less than 90%),5 (Herbicidal rate of 90% or more (almost completely withered)),2 (Herbicidal rate of 20% or more and less than 40%),1 (Herbicidal rate of 5% or more and less than 20%),2 (Herbicidal rate of 20% or more and less than 40%),0 (Herbicidal rate of 5% or less (almost no effect)),3 (Herbicidal rate of 40% or more and less than 70%)
CCCC(=O)Oc1c(C)nn(C)c(=O)c1-c1c(-c2ccc(C#N)cc2)sc2c(Cl)cccc12 [4-032],3 (Herbicidal rate of 40% or more and less than 70%),0 (Herbicidal rate of 5% or less (almost no effect)),3 (Herbicidal rate of 40% or more and less than 70%),5 (Herbicidal rate of 90% or more (almost completely withered)),0 (Herbicidal rate of 5% or less (almost no effect)),0 (Herbicidal rate of 5% or less (almost no effect)),0 (Herbicidal rate of 5% or less (almost no effect)),0 (Herbicidal rate of 5% or less (almost no effect)),5 (Herbicidal rate of 90% or more (almost completely withered)),3 (Herbicidal rate of 40% or more and less than 70%),0 (Herbicidal rate of 5% or less (almost no effect)),3 (Herbicidal rate of 40% or more and less than 70%),3 (Herbicidal rate of 40% or more and less than 70%),0 (Herbicidal rate of 5% or less (almost no effect)),0 (Herbicidal rate of 5% or less (almost no effect))
